Data: the NIST ThermoML archive (doi:10.1021/acs.jced.7b00694)
Numbers after ± are expanded uncertainties.

Test: xn = mol fraction of the nth substance listed
Settings: 349.94 K, Gas, Buoyancy - hydrostatic balance with magnetic suspension - one sinker

Q: For [HH] [hydrogen] + N#N, which mass density (1999 kPa, x2 = 0.9) is on record?
A: Its mass density is 17.375 ± 0.05 kg/m3.

Q: What about the mass density (2979 kPa, x2 = 0.9) of the same molecule?
A: Its mass density is 25.835 ± 0.05 kg/m3.

Q: And the mass density (2984 kPa, x2 = 0.5001)?
A: The mass density was 15.198 ± 0.036 kg/m3.

Q: What about the mass density (3995 kPa, x2 = 0.5001) of the same molecule?
A: The mass density was 20.259 ± 0.036 kg/m3.

Q: And the mass density (3997 kPa, x2 = 0.95)?
A: The mass density was 36.385 ± 0.053 kg/m3.

Q: What about the mass density (3998 kPa, x2 = 0.9) of the same molecule?
A: The mass density was 34.568 ± 0.051 kg/m3.

Q: What about the mass density (4998 kPa, x2 = 0.9) of the same molecule?
A: Its mass density is 43.083 ± 0.051 kg/m3.

Q: And the mass density (4998 kPa, x2 = 0.95)?
A: The mass density was 45.368 ± 0.053 kg/m3.

Q: And the mass density (5000 kPa, x2 = 0.5001)?
A: The mass density was 25.225 ± 0.036 kg/m3.

Q: And the mass density (5998 kPa, x2 = 0.5001)?
A: The mass density was 30.119 ± 0.037 kg/m3.

Q: And the mass density (5998 kPa, x2 = 0.9)?
A: The mass density was 51.533 ± 0.052 kg/m3.

Q: And the mass density (5998 kPa, x2 = 0.95)?
A: Its mass density is 54.273 ± 0.054 kg/m3.

Q: What about the mass density (6996 kPa, x2 = 0.5001) of the same molecule?
A: The mass density was 34.959 ± 0.037 kg/m3.

Q: And the mass density (6996 kPa, x2 = 0.95)?
A: The mass density was 63.099 ± 0.054 kg/m3.

Q: What about the mass density (6997 kPa, x2 = 0.9) of the same molecule?
A: Its mass density is 59.903 ± 0.052 kg/m3.

Q: And the mass density (7995 kPa, x2 = 0.5001)?
A: Its mass density is 39.749 ± 0.037 kg/m3.

Q: And the mass density (7998 kPa, x2 = 0.9)?
A: The mass density was 68.207 ± 0.052 kg/m3.

Q: And the mass density (7998 kPa, x2 = 0.95)?
A: The mass density was 71.871 ± 0.054 kg/m3.

Q: What about the mass density (8997 kPa, x2 = 0.5001) of the same molecule?
A: The mass density was 44.504 ± 0.037 kg/m3.

Q: What about the mass density (8998 kPa, x2 = 0.9) of the same molecule?
A: Its mass density is 76.424 ± 0.053 kg/m3.

Q: And the mass density (8999 kPa, x2 = 0.95)?
A: Its mass density is 80.553 ± 0.055 kg/m3.

Q: What about the mass density (9995 kPa, x2 = 0.5001) of the same molecule?
A: The mass density was 49.185 ± 0.038 kg/m3.

Q: What about the mass density (9996 kPa, x2 = 0.9) of the same molecule?
A: Its mass density is 84.544 ± 0.053 kg/m3.

Q: What about the mass density (9999 kPa, x2 = 0.95) of the same molecule?
A: Its mass density is 89.144 ± 0.055 kg/m3.

Q: And the mass density (10995 kPa, x2 = 0.5001)?
A: Its mass density is 53.825 ± 0.038 kg/m3.

Q: What about the mass density (10996 kPa, x2 = 0.9) of the same molecule?
A: Its mass density is 92.584 ± 0.054 kg/m3.

Q: And the mass density (10998 kPa, x2 = 0.95)?
A: Its mass density is 97.623 ± 0.056 kg/m3.

Q: What about the mass density (11994 kPa, x2 = 0.5001) of the same molecule?
A: The mass density was 58.4 ± 0.039 kg/m3.

Q: And the mass density (11995 kPa, x2 = 0.95)?
A: Its mass density is 105.989 ± 0.056 kg/m3.

Q: And the mass density (11997 kPa, x2 = 0.9)?
A: The mass density was 100.534 ± 0.054 kg/m3.

Q: What about the mass density (12994 kPa, x2 = 0.9) of the same molecule?
A: The mass density was 108.364 ± 0.055 kg/m3.

Q: And the mass density (12996 kPa, x2 = 0.5001)?
A: Its mass density is 62.939 ± 0.039 kg/m3.

Q: And the mass density (13990 kPa, x2 = 0.5001)?
A: The mass density was 67.389 ± 0.039 kg/m3.

Q: And the mass density (14000 kPa, x2 = 0.9)?
A: Its mass density is 116.157 ± 0.055 kg/m3.

Q: And the mass density (14992 kPa, x2 = 0.5001)?
A: The mass density was 71.82 ± 0.039 kg/m3.

Q: What about the mass density (14999 kPa, x2 = 0.9) of the same molecule?
A: Its mass density is 123.797 ± 0.055 kg/m3.

Q: What about the mass density (15993 kPa, x2 = 0.9) of the same molecule?
A: The mass density was 131.294 ± 0.056 kg/m3.

Q: What about the mass density (15994 kPa, x2 = 0.5001) of the same molecule?
A: Its mass density is 76.196 ± 0.04 kg/m3.

Q: What about the mass density (16996 kPa, x2 = 0.5001) of the same molecule?
A: Its mass density is 80.519 ± 0.04 kg/m3.

Q: And the mass density (16996 kPa, x2 = 0.95)?
A: Its mass density is 146.347 ± 0.059 kg/m3.

Q: What about the mass density (17001 kPa, x2 = 0.9) of the same molecule?
A: Its mass density is 138.788 ± 0.056 kg/m3.

Q: What about the mass density (17991 kPa, x2 = 0.5001) of the same molecule?
A: The mass density was 84.762 ± 0.041 kg/m3.

Q: What about the mass density (17997 kPa, x2 = 0.9) of the same molecule?
A: Its mass density is 146.084 ± 0.057 kg/m3.

Q: What about the mass density (18002 kPa, x2 = 0.95) of the same molecule?
A: The mass density was 154.124 ± 0.059 kg/m3.

Q: What about the mass density (18991 kPa, x2 = 0.5001) of the same molecule?
A: The mass density was 88.967 ± 0.041 kg/m3.

Q: What about the mass density (18992 kPa, x2 = 0.9) of the same molecule?
A: Its mass density is 153.266 ± 0.058 kg/m3.

Q: And the mass density (18992 kPa, x2 = 0.95)?
A: Its mass density is 161.661 ± 0.06 kg/m3.

Q: And the mass density (19744 kPa, x2 = 0.9)?
A: The mass density was 158.626 ± 0.058 kg/m3.

Q: What about the mass density (19885 kPa, x2 = 0.5001) of the same molecule?
A: Its mass density is 92.681 ± 0.042 kg/m3.

Q: What about the mass density (19940 kPa, x2 = 0.95) of the same molecule?
A: The mass density was 168.761 ± 0.06 kg/m3.
